Data from US20260028352A1, “MACROCYCLIC IMIDAZO [1,2-B] PYRIDAZINE DERIVATIVE, PREPARATION METHOD THEREFOR, AND USE THEREOF” (SUZHOU LANGRUI BIOPHARMACEUTICAL CO., LTD., priority 2022, published 2026).
Like-named read-outs stand apart in the source and are kept apart here.

Key:
[1] = ether bond
TRKA^WT kinase = TRKA^WT kinase (Homo sapiens (Human), UniProt P04629); assay: Inhibitory activity against TRKA WT kinase (Caliper mobility shift); assay type: biochemical; conditions: in vitro kinase assay
Procedure, shortened: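 Kinase preincubated 10 min at room temperature with compound (10-point 3-fold series from 1000 nM), then reaction started with ATP and Kinase Substrate 22. Substrate conversion read by Caliper mobility shift; IC50 from variable-slope log(inhibitor)–response fit of % inhibition versus no-enzyme and no-compound controls.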

TRKA^F589L kinase = TRKA^F589L kinase (Homo sapiens (Human), UniProt P04629, F589L); assay: Inhibitory activity against TRKA(F589L) kinase (Caliper mobility shift); assay type: biochemical; conditions: in vitro kinase assay
Procedure: Kinase Assay Process: 1× Kinase buffer was prepared. […] The compounds were serially diluted into 10 concentrations ([…], 0.15, and 0.05 nM) using a Precision 3-fold dilution method. By using the Echo550 liquid handler, 250 nL of the 100-fold final concentration compound was transferred to an OptiPlate-384F plate. a 2.5× final concentration kinase solution was prepared using 1× Kinase buffer. 10 μL of the 2.5× final concentration kinase solution was added to the compound wells and the positive control wells, and 10 μL of 1× Kinase buffer was added to the negative control wells. The plate was centrifuged at 1000 rpm for 30 seconds, vortexed for mixing, and then incubated at room temperature for 10 minutes. A mixture of 5/3× final concentration of ATP and Kinase Substrate 22 was prepared using 1× Kinase buffer. 15 μL of the mixture of the 5/3× final concentration ATP and the substrate was added to initiate the reaction, the 384-well plate was centrifuged at 1000 rpm for 30 seconds, vortexed for mixing, and incubated at room temperature for the required time. 30 μL of the termination solution was added to stop the kinase reaction, the plate was centrifuged at 1000 rpm for 30 seconds, and vortexed for mixing. The conversion rate was measured using the Caliper EZ Reader.
Data Analysis: the inhibition rate was calculated as follows:
% Inhibition=(Conversion %_max−conversion %_sample)÷(Conversion %_max−conversion %_min)×100
Conversion %_sample is the conversion rate reading for the sample; Conversion %_min is the average value of the negative control wells, representing the conversion rate for wells without enzyme activity: Conversion %_max is the average value of the positive control wells, representing the conversion rate for wells without compound inhibition. A dose-response curve was fitted using the log concentration of the compound as the X-axis and the percentage inhibition as the Y-axis. The log(inhibitor) vs. response-variable slope of the GraphPad Prism 5 software was used to fit the dose-response curve, and the IC50 value for each compound was obtained. The calculation formula is:
Y=Bottom+(Top−Bottom)/(1+10^((Log IC50−X)*HillSlope)).
wherein X represents the concentration of the compound to be tested; Y represents the inhibition rate at the concentration X: Top refers to the maximum response: Bottom refers to the baseline response; HillSlope refers to the slope of the curve (i.e., the gradient).

[2] = test system: Ba/F3-TPM3-NTRK1-G667C cells; assay: Growth inhibition of Ba/F3-TPM3-NTRK1-G667C cells (Cell Titer-Glo); assay type: cell-based; conditions: for IC50: 72 hours, CTG, read-out: inhibitory activity IC50 Ba/F3-TPM3-NTRK1-G667C
Procedure, shortened: (§1)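 Ba/F3 cells were exposed for 72 hours to serially DMSO-diluted compound at a top final concentration of 10 μM. Viability was read by Cell Titer-Glo luminescence after the plate equilibrated 30 min at room temperature and was then shaken 1 hour in the dark at room temperature.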

[3] = test system: Ba/F3-TPM3-NTRK1-G595R cells; assay: Growth inhibition of Ba/F3-TPM3-NTRK1-G595R cells (Cell Titer-Glo); assay type: cell-based; conditions: 72 hours, CTG; read-out: inhibitory activity IC50 Ba/F3-TPM3-NTRK1-G595R
Procedure, shortened: as §1

[4] = test system: Ba/F3-TPM3-NTRK1-WT cells; assay: Growth inhibition of Ba/F3-TPM3-NTRK1-WT cells (Cell Titer-Glo); assay type: cell-based; conditions: 72 hours, CTG; read-out: inhibitory activity IC50 Ba/F3-TPM3-NTRK1-WT
Procedure, shortened: as §1

[5] = test system: Ba/F3-TPM3-NTRK1-WT subcutaneous xenograft; assay: Efficacy in Ba/F3-TPM3-NTRK1-WT subcutaneous xenograft tumor model; assay type: in vivo, NOD-SCID mice
Procedure: Cell culture: Ba/F3-TPM3-NTRK1-WT cells were cultured in RPMI 1640 medium containing 10% FBS. Ba/F3-TPM3-NTRK1-WT cells in logarithmic growth phase were collected, the required total number of cells was calculated, and the cells were resuspended in a suitable volume of PBS mixture (PBS:Matrigel=1:1 (v/v)) with a cell suspension concentration of 5×106/0.1 mL for subcutaneous inoculation on the right side of NOD-SCID mice.
Method: On Day 0, all animals were subcutaneously inoculated with 0.1 mL (5×10^6 Ba/F3-TPM3-NTRK1-WT cells) of cell suspension (PBS:Matrigel=1:1, VN) on the right back. After the tumor growed to an average volume of 178.3 mm3, the mice were grouped and administrated. The average tumor volume of the enrolled animals is 178.3 mm^3. The mice were divided into two groups. Group-1 (Vehicle) and Group-2 (10 mg/kg, I-52). Each group consisted of 6 animals. All groups were administered orally by gavage with a frequency of BID, for a total of 29 days.
(§2) Tumor volume inhibition rate TGITV (%): TGI %=(1−ΔT/ΔC)×100%, wherein ΔC is the tumor volume Ct−C0 of the control group, C0 is the average tumor volume of the control group at the time of grouping, Ct is the average tumor volume of the control group after treatment, ΔT is the tumor volume Tt−T0 of the treatment group, T0 is the average tumor volume of the […] after treatment.
Pharmacological activity was evaluated based on tumor suppression rate (TGITV), and tolerance was evaluated based on changes in animal weight and mortality.

[6] = test system: Ba/F3-TPM3-NTRK1-G667C subcutaneous xenograft; assay: Efficacy in Ba/F3-TPM3-NTRK1-G667C subcutaneous xenograft tumor model; assay type: in vivo, NOD-SCID mice; conditions: 10 mg/kg oral BID
Procedure: Cell Culture: Ba/F3-TPM3-NTRK1-G667C cells were cultured in RPMI 1640 medium containing 10% FBS. Log-phase cells were collected, and the total number of cells required was calculated. Cells were resuspended in an appropriate volume of PBS mixture solution (PBS:Matrigel=1:1, v/v) at a concentration of 5×10^6 cells/0.1 mL for subcutaneous inoculation into the right flank of NOD-SCID mice.
Method: at Day 0, all animals were subcutaneously inoculated with 0.1 mL (5×10^6 cells) of Ba/F3-TPM3-NTRK1-G667C cell suspension (PBS:Matrigel=1:1, v/v) on the right flank. When the tumors reached an average volume of 197.2 mm^3, dosing and grouping began. […] The animals were divided into two groups: Group 1: Vehicle control; Group 2: 10 mg/kg of compound 1-52. Each group contained six mice. All groups were administered orally via gavage twice daily (BID) for 29 days.
as §2, with “Tumor Volume Inhibition Rate TGITV(%):” for “Tumor volume inhibition rate TGITV (%):”, “TGI %=(1−ΔT/ΔC)×100%; Where:” for “TGI %=(1−ΔT/ΔC)×100%, wherein”, “group, To” for “group, T0”
Pharmacological activity was evacuated based on tumor suppression rate (TGITV), and tolerance was assessed based on changes in animal weight and mortality.

TRKA^F589L kinase, sequence (P04629 33-796 F589L): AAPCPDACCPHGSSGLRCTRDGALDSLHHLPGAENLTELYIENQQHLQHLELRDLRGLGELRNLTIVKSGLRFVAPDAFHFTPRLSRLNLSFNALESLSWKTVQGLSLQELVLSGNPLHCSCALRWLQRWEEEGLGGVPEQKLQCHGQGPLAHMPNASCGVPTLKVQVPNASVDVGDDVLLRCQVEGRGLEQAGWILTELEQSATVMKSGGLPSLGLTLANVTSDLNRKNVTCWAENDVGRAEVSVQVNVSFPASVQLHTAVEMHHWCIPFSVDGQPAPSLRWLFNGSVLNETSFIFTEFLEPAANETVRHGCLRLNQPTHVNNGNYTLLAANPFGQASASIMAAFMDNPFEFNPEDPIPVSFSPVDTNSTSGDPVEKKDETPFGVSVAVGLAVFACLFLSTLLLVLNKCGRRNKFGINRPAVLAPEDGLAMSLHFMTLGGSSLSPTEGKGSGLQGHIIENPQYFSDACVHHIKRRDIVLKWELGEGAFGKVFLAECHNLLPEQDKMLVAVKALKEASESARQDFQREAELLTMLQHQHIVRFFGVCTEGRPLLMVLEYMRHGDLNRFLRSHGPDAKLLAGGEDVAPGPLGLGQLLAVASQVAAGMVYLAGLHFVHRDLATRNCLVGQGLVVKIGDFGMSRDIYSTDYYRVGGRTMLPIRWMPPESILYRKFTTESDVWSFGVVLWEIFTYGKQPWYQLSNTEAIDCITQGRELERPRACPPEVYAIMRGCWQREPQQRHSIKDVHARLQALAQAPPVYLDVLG
TRKA^WT kinase, sequence (P04629 33-796): as the sequence (P04629 33-796 F589L) above, with L557F counted along it

CC1Nc2ccc3ncc(n3n2)-c2cc(ccn2)COc2ccc(F)cc21 (centres unmarked) [Example I-1, (E)-5^4-fluoro-6-methyl-4-oxa-7-aza-1(3,6)-imidazo[1,2-b]pyridazina-2(2,4)-pyridina-5(1,2)-benzenacycloheptaphane]
ring closure, isolated yield ([1]; from CC(Nc1ccc2ncc(-c3cc(CO)ccn3)n2n1)c1cc(F)ccc1O, 13-membered ring, SOCl2, K2CO3, DCM/DMF, 15.2 mM, 90.0 °C, 2.0 h, 2 steps): 11.3%
IC50 (TRKA^WT kinase): 2.57 nM
IC50 (TRKA^F589L kinase): 5.4 nM
IC50 [2]: 91.2 nM
IC50 [3]: 72.2 nM
IC50 [4]: 3.66 nM

CC1Nc2ccc3ncc(n3n2)-c2cc(ccn2)COc2c(F)cc(F)cc21 (centres unmarked) [Example I-2, (E)-5^4,5^6-difluoro-6-methyl-4-oxa-7-aza-1(3,6)-imidazo[1,2-b]pyridazine-2(2,4)-pyridina-5(1,2)-benzenacycloheptaphane]
ring closure, isolated yield ([1]; from CC(Nc1ccc2ncc(-c3cc(CO)ccn3)n2n1)c1cc(F)cc(F)c1O, 13-membered ring, SOCl2, K2CO3, DCM/DMF, 15.2 mM, 90.0 °C, 1.5 h, 2 steps): 11.2%
IC50 (TRKA^WT kinase): 2.59 nM
IC50 (TRKA^F589L kinase): 6.2 nM
IC50 [2]: 32.5 nM
inhibitory ability compared with TPX-0005 ([2]; comparison in words): stronger than that of compound TPX-0005
IC50 [3]: 245 nM
IC50 [4]: 24.8 nM

CC1Nc2ccc3ncc(n3n2)-c2cc(ccn2)COc2ccccc21 (centres unmarked) [Example I-3, (E)-6-methyl-4-oxa-7-aza-1(3,6)-imidazo[1,2-b]pyridazine-2(2,4)-pyridine-5(1,2)-benzenacycloheptaphane]
ring closure, isolated yield ([1]; from CC(Nc1ccc2ncc(-c3cc(CO)ccn3)n2n1)c1ccccc1O, 13-membered ring, SOCl2, K2CO3, DCM/DMF, 11.0 mM, 90.0 °C, 2.0 h, 2 steps): 39.2%
IC50 (TRKA^WT kinase): 5.9 nM
IC50 (TRKA^F589L kinase): 7.1 nM
IC50 [2]: 526 nM
IC50 [3]: 527 nM
IC50 [4]: 17 nM

CC1Nc2ccc3ncc(n3n2)-c2cc(ccn2)COc2ncccc21 (centres unmarked) [Example I-4, (E)-6-methyl-4-oxa-7-aza-1(3,6)-imidazo[1,2-b]pyridazina-2(2,4), 5(2,3)-dipyridinacycloheptaphane]
ring closure, isolated yield ([1]; from CC(Nc1ccc2ncc(-c3cc(CO)ccn3)n2n1)c1cccnc1O, 13-membered ring, SOCl2, K2CO3, DCM/DMF, 22.0 mM, 90.0 °C, 2.0 h, 2 steps): 30.2%
IC50 (TRKA^WT kinase): < 3 nM
IC50 (TRKA^F589L kinase): 5.8 nM
IC50 [2]: < 100 nM

CC1Nc2ccc3ncc(n3n2)-c2cc(ccn2)OCc2ncc(F)cc21 (centres unmarked) [Example I-12, (E)-5^5-fluoro-6-methyl-3-oxa-7-aza-1(3,6)-imidazo[1,2-b]pyridazina-2(2,4), 5(2,3)-dipyridinacycloheptaphane]
ring closure, isolated yield ([1]; from CC(Nc1ccc2ncc(-c3cc(O)ccn3)n2n1)c1cc(F)cnc1CO, 13-membered ring, SOCl2, then K2CO3, DCM/DMF, then DMF (DCM evaporated), 15.7 mM, 90.0 °C, 2.0 h, 2 steps): 22.6%
IC50 [2]: < 100 nM

Fc1cnc2c(c1)[C@H]1C[C@H](F)CN1c1ccc3ncc(n3n1)-c1cc(ccn1)CO2 [Example I-52, (14bR,16S,E)-13,16-difluoro-14b,15,16,17-tetrahydro-9H-1,19-etheno-4,8-(metheno)imidazo[1,5-h]pyrido[2,3-b]pyrrolo[2,1-d][1]oxa[5,7,8,11]tetraazacyclopentadecine]
IC50 [2]: 0.88 nM
IC50 [3]: 0.3 nM
IC50 [4]: 0.02 nM
Average Tumor Volume ([5]; Day 4, 10 mg/kg oral BID): 182.5 mm^3
Average Tumor Volume ([5]; Day 6, 10 mg/kg oral BID): 192.7 mm^3
Average Tumor Volume ([5]; Day 8, 10 mg/kg oral BID): 176.5 mm^3
Average Tumor Volume ([5]; Day 10, 10 mg/kg oral BID): 146.3 mm^3
Average Tumor Volume ([5]; Day 12, 10 mg/kg oral BID): 113.1 mm^3
Average Tumor Volume ([5]; Day 14, 10 mg/kg oral BID): 74.4 mm^3
Average Tumor Volume ([5]; Day 15, 10 mg/kg oral BID): 67.9 mm^3
Average Tumor Volume ([5]; Day 17, 10 mg/kg oral BID): 60.1 mm^3
Average Tumor Volume ([5]; Day 19, 10 mg/kg oral BID): 32.8 mm^3
Average Tumor Volume ([5]; Day 21, 10 mg/kg oral BID): 0.0 mm^3
Average Tumor Volume ([5]; Day 23, 10 mg/kg oral BID): 0.0 mm^3
Average Tumor Volume ([5]; Day 25, 10 mg/kg oral BID): 0.0 mm^3
Average Tumor Volume ([5]; Day 27, 10 mg/kg oral BID): 0.0 mm^3
TGITV ([5]; Day 29, 10 mg/kg oral BID): 112%
Tumor Regression Rate ([5]; Day 29, 10 mg/kg oral BID): 100%
Tumor Volume (average) ([5]; Day 29, 10 mg/kg oral BID): 0.0 mm^3
Average Tumor Volume ([5]; Day 29, 10 mg/kg oral BID (Table 7)): 0.0 mm^3
Average Body Weight ([6]; Day 2): 19.1 g
Average Body Weight ([6]; Day 7): 20.9 g
Average Body Weight ([6]; Day 9): 21.0 g
Average Body Weight ([6]; Day 11): 21.8 g
Average Body Weight ([6]; Day 13): 22.0 g
Average Body Weight ([6]; Day 15): 22.8 g
Average Body Weight ([6]; Day 17): 23.0 g
Average Body Weight ([6]; Day 19): 23.7 g
Average Body Weight ([6]; Day 21): 23.3 g
Average Body Weight ([6]; Day 23): 24.3 g
Average Body Weight ([6]; Day 25): 24.7 g
Average Body Weight ([6]; Day 27): 25.3 g
Average Body Weight ([6]; Day 29): 24.6 g
Relative Tumor Volume (average) ([6]; Day 29): 308.6%
TGITV ([6]; Day 29): 84%
Tumor Volume (average) ([6]; Day 29): 636.5 mm^3

(E)-4-methyl-6-oxa-3-aza-2(3,6)-imidazo [1,2-b]pyridazina-1(2,4)-pyridina-5(1,2)-benzenacyclooctaphane
ring closure, isolated yield ([1]; 14-membered ring, PPh3/DIAD, THF, 15.8 mM, 60.0 °C): 18.4%
